Patent US6608088B1, “Use of donerezil for the treatment of functional and/or organic pain syndromes” (priority 1998, dated 2003)
Where a name gives a salt, the structure may show the parent alone.

How the values were obtained:
[1] = human, in vivo
[2] = system: pain syndromes caused by denervation or amputation; assay: Treatment of patients with pain syndromes caused by denervation; format: in vivo; conditions: five of nine patients, no advantage after antiinflammatory analgesics or opioids; same conditions as above (5 mg daily)
Experimental: In the pain syndromes caused by denervation or amputation pain develops on the limb or body part which is denervated and therefore is insensible to nociceptive stimuli (“painful anaesthesia”).
Nine patients who had no advantages after treatment with antiinflammatory analgesica or opioids were tested in the same conditions as above described.

[3] = system: migraine attacks longer than 72 h; assay: Acute treatment of patients with migraine attacks longer than 72 h; format: in vivo; conditions: 8 patients, 20 mg acutely given
primary fibromyalgia = assay: Treatment of patients with primary fibromyalgia; format: in vivo; conditions: 16 patients, same conditions as migraine tests (5 mg daily)
Excerpt: Systemic pain of muscles, tendons, viscera (oesophagus, stomach, colon); these syndromes are considered particularly difficult to hale.

COc1cc2c(cc1OC)C(=O)C(CC1CCN(Cc3ccccc3)CC1)C2 (centres unmarked) [Donepezil hydrochloride, 1H-Inden-1-one, 2,3-dihydro-5,6-dimethoxy-2-[[1-(phenylmethyl)4-piperidinyl]methyl]-, hydrochloride]
tolerance to the treatment [1]: high tolerance | improvement of conditions [2]: 50-80% | results of acute treatment of migraine attacks [3]: highly satisfactory | cases treated with improvement of the patient's conditions (primary fibromyalgia): 60% | cases with total disappearance of the pain (primary fibromyalgia): 10%
